Laboratory results from patent US9790541B2, “Methods and compositions for labeling nucleic acids” (President and Fellows of Harvard College, priority 2005, dated 2017).

Legend:
[1] = system: HeLa cells; experiment: Staining of EdU-labeled live cells with TMR-propyl-azide, time-lapse fluorescence microscopy; assay type: cell-based; details: 200 nM TMR-propyl-azide, 37° C., FIG. 7
Procedure: Ascorbic acid (from a […] stock in water) was then added to this solution to a final concentration of 50 mM, and the resulting staining solution is mixed thoroughly.
Washes with methanol or ethanol may be performed to obtain low background
To facilitate live microscopic imaging, EdU-labeled cells were plated in coverslip chambers which were mounted on the heated stage (37° C.) of an inverted Nikon TE200)U microscope equipped for wide-field fluorescence microscopy as well as spinning-disk confocal fluorescence microscopy (Yokogama spinning disk confocal head from Perkin-Elmer). […] The cells were imaged by time-lapse fluorescent microscopy (one frame every 15 seconds) to detect the TMR signal accumulating in the nuclei of the EdU-labeled cells.

[2] = system: HeLa cells; experiment: Tracing a single sister chromatid: EdU pulse, chase of two cell cycles, Alexa568-azide staining; assay type: cell-based; details: EdU pulse during DNA synthesis, Alexa568-azide stain
From the text: The purpose of the experiment reported herein was to label only one DNA molecule of the two that form a chromosome. That was accomplished by pulsing HeLa cells with EdU during DNA synthesis followed by a chase lasting two cell cycles, as depicted on FIG. 12. […] EdU allowed very nice resolution imaging of chromosomes in cells as shown by FIG. 13.

[3] = system: HeLa cells; experiment: Labeling of HeLa cells with EdU, fixed/permeabilized, stained with Xrhodamine-azide; assay type: cell-based; details: 1 μM EdU; cell in anaphase; labeling pulse shorter than DNA replication time
Procedure: Ethynyl-dU (EdU) was used in tissue culture media (DMEM complemented with penicillin, streptomycin, and fetal calf serum (FCS)) ranging from 10 nM to 1 μM depending on the length of the labeling pulse. For example, if cells to be labeled were synchronized in the S phase, 100 nM to 1 μM of EdU was used for 1 to 2 hours. After labeling, the cells were washed 3 or 4 times with PBS and then tissue culture media was added.
Staining Solution: 100 mM Tris pH 8.5 (from 2 M stock in water), 0.5 to 1 mM CuSO4 (from 1 M stock in water), 0.5 to 1 μM fluorophore-azide (from approximately 10-100 mM stock in DMSO), and water (as required) were mixed together. Ascorbic acid (from a […] stock in water) was then added to this solution to a final concentration of 50-100 mM, and the resulting staining solution is mixed thoroughly using a vortex.
Cells can be fixed by any suitable method, e.g., cells can be fixed by aldehyde fixation (formaldehyde or glutaraldehyde), with or without permeabilization. After fixation, the cells were washed in buffer with or without non-ionic detergent (0.2-0.5% Triton X100). Before staining, cells were rinsed with buffer without detergent (PBS or TBS). The cells were then incubated in the presence of the staining solution for at least 30 minutes. Overnight staining is preferably performed in a cold room.

[4] = system: mouse intestine and brain; experiment: In vivo labeling with EdU, organ sections stained with Xrhodamine-azide and Hoechst; design: species or system mice; details: 200 micrograms EdU intraperitoneally, organs harvested three days later
Procedure: BLAB/C mice were injected with 200 micrograms of EdU intraperitoneally. Three days later, organs were harvested, fixed, embedded in paraffin and sectioned. The sections were then de-waxed and stained with Xrhadomine-azide for 5 minutes, stained with Hoechst, washed and then mounted.

Compound: C#Cc1cn([C@H]2C[C@H](O)[C@@H](CO)O2)c(=O)[nH]c1=O [EdU, 5-ethynyl-2′ deoxyuracil]
- EdU detection over time (DNA staining intensity) [1]: complete within minutes
- DNA molecules of a chromosome labeled, first mitosis after labeling [2]: both DNA molecules were labeled
- DNA molecules of a chromosome labeled, second mitosis [2]: only one DNA molecule was labeled
- DNA labeling by EdU in HeLa cells [3]: only the DNA replicating during the pulse was labeled
- EdU-labeled cells in intestine section ([4]; FIG. 8): cells with red nuclei are the cells which incorporated EdU
- EdU-labeled cells in brain section ([4]; FIG. 10): sole EdU-labeled cell
